Data from patent publication US6218393A, “Anthranilic acid derivatives as multi drug resistance modulators” (priority 1997, dated 2001).
pIC50: −log10 of the molar value.

What was measured:
AR 1.0 cells [1] = assay: Drug accumulation assay: daunorubicin accumulation in AR 1.0 cells; type: cell-based; conditions: Mus musculus, 100% = accumulation with verapamil 100 μM, 1 hr, 37° C.
In short: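 Daunorubicin accumulation was measured in cells plated 48 h beforehand. These were AR 1.0 cells, an MDR-resistant derivative of mouse EMT6 mammary carcinoma, cultured at 37 °C in 5% CO2 in RPMI 1640 plus 10% foetal calf serum and 2 mM glutamine.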

AR 1.0 cells [2] = assay: Potentiation index with doxorubicin titration; type: cell-based, mouse; conditions: for Potentiation Index at RMA concentration 500 nM: Table C2, RMA 500 nM
In short: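 Doxorubicin IC50 in AR 1.0 cells (MDR subline of EMT6 mouse mammary carcinoma) determined by sulphorhodamine B after 4-day culture across 0.263 nM-17.24 μM, with and without a fixed dose of test compound; their ratio gives the PI.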

H69/LX4 cells = assay: Potentiation of toxicity of various cytotoxic agents, H69/LX4 cell line; type: cell-based; conditions: Taxol
Description: (b) Cells were cultured for four days with a titration of doxorubicin (0.263 nM-17.24 μM) in the presence of a fixed concentration of each compound. Proliferation was quantified as described by Skehen et al, loc cit. The IC50 (concentration required to reduce proliferation to 50% of the untreated controls) for doxorubicin alone and with each compound were derived and used to calculate the potentiation index (PI): [formula]
The potentiation indices of a selection of compounds using a variety of cell lines and a variety of cytotoxics other than doxorubicin were measured following the protocol described above for doxorubicin, and the results are shown in Table D.

AR 1.0 cells [3] = assay: Potentiation of doxorubicin toxicity: proliferation assay (sulphorhodamine B); type: cell-based, mouse
Text: (a) Selected compounds of formula (I) were examined for their ability to potentiate the toxicity of doxorubicin in AR 1.0 cells.

[4] = Mus musculus, 96 h, compound alone, four day proliferation, read-out: Compound Toxicity (IC50)
[5] = with fixed doxorubicin 0.34 μm, four days, 5760 min, read-out: Toxicity with Cytotoxic Agent (IC50)

COc1cc2c(cc1OC)CN(CCc1ccc(NC(=O)c3c(C)csc3NC(=O)c3cnc4ccccc4n3)cc1)CC2 [compound 9608, Quinoxaline-2-carboxylic acid (3-{4-[2-(6,7-dimethoxy-3,4-dihydro-1H-isoquinolin-2-yl)-ethyl]-phenylcarbamoyl}-4-methyl-thiophen-2-yl)-amide]
pIC50 (AR 1.0 cells [1]): 6.65 | Potentiation Index at RMA concentration 10 nM (AR 1.0 cells [2]; Table C1, RMA 10 nM): 6.7 | Potentiation Index at RMA concentration 20 nM (AR 1.0 cells [2]; Table C1, RMA 20 nM): 31 | Potentiation Index at RMA concentration 30 nM (AR 1.0 cells [2]; Table C1, RMA 30 nM): 60 | Potentiation Index at RMA concentration 50 nM (AR 1.0 cells [2]; Table C1, RMA 50 nM): 118 | Potentiation Index at RMA concentration 100 nM (AR 1.0 cells [2]; Table C1, RMA 100 nM): 178 | Potentiation Index at RMA concentration 10 nM (H69/LX4 cells; RMA 10 nM): 1.6 | Potentiation Index at RMA concentration 30 nM (H69/LX4 cells; RMA 30 nM): 17 | Potentiation Index at RMA concentration 50 nM (H69/LX4 cells; RMA 50 nM): 130

COc1cc2c(cc1OC)CN(CCc1ccc(NC(=O)c3ccccc3NC(=O)c3ccc(C)nc3)cc1)CC2 [compound 9557, N-(2-{4-[2-(6,7-Dimethoxy-3,4-dihydro-1H isoquinolin-2-yl)-ethyl]-phenylcarbamoyl}phenyl)-6-methyl-nicotinamide]
pIC50 (AR 1.0 cells [1]): 7.92 | pIC50 (AR 1.0 cells [3]; [4]): 5.05 | pIC50 (AR 1.0 cells [3]; [5]): 7.70 | Potentiation Index at RMA concentration 10 nM (AR 1.0 cells [2]; Table C2, RMA 10 nM): 1.2 | Potentiation Index at RMA concentration 100 nM (AR 1.0 cells [2]; Table C2, RMA 100 nM): 100

COc1cc2c(cc1OC)CN(CCNC(=O)c1ccccc1NC(=O)c1ccc(Cc3ccccc3)cc1)CC2 [compound 9442, 2-(4-Benzyl-benzoylamino)-N-[2-(6,7-dimethoxy-3,4-dihydro-1H-isoquinolin-2-yl)-ethyl]-benzamide]
pIC50 (AR 1.0 cells [1]): 6.00 | pIC50 (AR 1.0 cells [3]; [4]): 5.14 | pIC50 (AR 1.0 cells [3]; [5]): 7.30 | Potentiation Index at RMA concentration 300 nM (AR 1.0 cells [2]; Table C2, RMA 300 nM): 27 | Potentiation Index at RMA concentration 500 nM (AR 1.0 cells [2]): 67

COc1cc2c(cc1OC)CN(CCc1ccc(NC(=O)c3ccc([N+](=O)[O-])cc3NC(=O)c3cnc4ccccc4c3)cc1)CC2 [compound 9581, Quinoline-3-carboxylic acid (2-{4-[2-(6,7-dimethoxy-3,4-dihydro-1H-isoquinolin-2-yl)-ethyl]-phenylcarbamoyl}-5-nitro-phenyl)-amide]
pIC50 (AR 1.0 cells [1]): 7.82 | pIC50 (AR 1.0 cells [3]; [4]): 6.51 | Potentiation Index at RMA concentration 10 nM (AR 1.0 cells [2]; Table C2, RMA 10 nM): 90 | Potentiation Index at RMA concentration 30 nM (AR 1.0 cells [2]; Table C2, RMA 30 nM): 300

COc1cc2c(cc1OC)CN(CCNC(=O)c1cc(Cl)ccc1NC(=O)c1ccc(C(C)C)cc1)CC2 [compound 9354, 2-(4-Isopropyl-benzoylamino)-N-[2-(6,7-dimethoxy-3,4-dihydro-1H-isoquinolin-2-yl)-ethyl]-5-chioro-benzamide]
pIC50 (AR 1.0 cells [1]): 6.22 | pIC50 (AR 1.0 cells [3]; [4]): 5.10 | pIC50 (AR 1.0 cells [3]; [5]): 6.82 | Potentiation Index at RMA concentration 500 nM (AR 1.0 cells [2]): 20

COc1cc2c(cc1OC)CN(Cc1ccc(NC(=O)c3ccccc3NC(=O)c3cnc4ccccc4c3)cc1)CC2 [compound 9585, Quinoline-3-carboxylic acid {2-[4-(6,7-dimethoxy-3,4-dihydro-1H-isoquinolin-2-ylmethyl)-phenylcarbamoyl]-phenyl}-amide]
pIC50 (AR 1.0 cells [1]): 7.40 | pIC50 (AR 1.0 cells [3]; [4]): 5.04 | Potentiation Index at RMA concentration 10 nM (AR 1.0 cells [2]; Table C2, RMA 10 nM): 1.3 | Potentiation Index at RMA concentration 30 nM (AR 1.0 cells [2]; Table C2, RMA 30 nM): 7.2
